Assay results taken from PMC9120017, “Inhibition mechanism of the chloride channel TMEM16A by the pore blocker 1PBC” (Nature Communications, 2022).
Where two headings read alike, the source gives them in different places.

Molecular target: T1, mouse TMEM16A mutant N546A (Mus musculus, UniProt Q8BHY3, N546A)
T1 construct: expressed in transfected cells; host or cells: HEK293T
T1 sequence (Q8BHY3 1-960 N546A): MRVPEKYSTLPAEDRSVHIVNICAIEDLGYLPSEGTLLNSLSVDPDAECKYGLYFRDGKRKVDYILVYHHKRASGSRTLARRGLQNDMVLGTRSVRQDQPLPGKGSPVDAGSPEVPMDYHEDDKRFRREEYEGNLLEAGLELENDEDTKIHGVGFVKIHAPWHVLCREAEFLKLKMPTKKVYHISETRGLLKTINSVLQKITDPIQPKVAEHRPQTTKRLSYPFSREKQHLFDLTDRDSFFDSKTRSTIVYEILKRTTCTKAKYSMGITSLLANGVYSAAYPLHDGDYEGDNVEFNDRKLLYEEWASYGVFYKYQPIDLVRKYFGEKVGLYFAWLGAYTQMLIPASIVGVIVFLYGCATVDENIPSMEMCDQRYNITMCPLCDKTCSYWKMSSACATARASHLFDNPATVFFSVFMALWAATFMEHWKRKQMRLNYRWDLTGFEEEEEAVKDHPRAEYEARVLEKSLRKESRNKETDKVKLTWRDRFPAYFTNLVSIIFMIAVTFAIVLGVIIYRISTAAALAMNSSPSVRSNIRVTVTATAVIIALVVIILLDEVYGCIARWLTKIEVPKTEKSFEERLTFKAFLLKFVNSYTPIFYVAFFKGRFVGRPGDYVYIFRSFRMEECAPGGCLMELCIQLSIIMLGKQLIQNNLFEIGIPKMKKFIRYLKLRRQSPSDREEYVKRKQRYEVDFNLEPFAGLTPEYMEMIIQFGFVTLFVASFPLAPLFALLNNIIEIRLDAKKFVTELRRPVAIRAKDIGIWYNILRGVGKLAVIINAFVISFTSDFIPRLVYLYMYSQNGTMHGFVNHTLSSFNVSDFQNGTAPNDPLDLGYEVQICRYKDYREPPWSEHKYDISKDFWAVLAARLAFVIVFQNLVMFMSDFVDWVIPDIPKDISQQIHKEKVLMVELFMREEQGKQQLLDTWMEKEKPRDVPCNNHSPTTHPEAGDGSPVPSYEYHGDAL
Experiment: Inside-out patch recording of 1PBC block, mutant N546A
Type: cell-based
Conditions: for remaining activity at 1 µM: 1PBC 1; for remaining activity at 1 µM / remaining activity at 3 µM / remaining activity at 10 µM: read-out: fraction of unblocked current; for remaining activity at 3 µM: 1PBC 3; for remaining activity at 10 µM: 1PBC 10
Method: HEK293T cells (ATCC CRL-1573) were maintained in Dulbecco’s modified Eagle’s medium (DMEM; Sigma-Aldrich) supplemented with 10 U ml^−1 penicillin, 0.1 mg ml^−1 streptomycin (Sigma-Aldrich), 2 mM L-glutamine (Sigma-Aldrich), and 10% FBS (Sigma-Aldrich) in a humidified atmosphere containing 5% CO2 at 37 °C. HEK293S GnTI^− cells (ATCC CRL-3022) were maintained in HyClone HyCell TransFx-H medium (GE Healthcare) supplemented with 10 U ml^−1 penicillin, 0.1 mg ml^−1 streptomycin, 4 mM L-glutamine, 0.15% poloxamer 188 (Sigma-Aldrich), and 1% FBS in an atmosphere containing 5% CO2 at 185 rpm at 37 °C. The ac splice variant of mouse TMEM16A (UniProt ID: Q8BHY3), mouse TMEM16B (UniProt ID: Q8CFW1), or mouse TMEM16F (UniProt ID: Q6P9J9) bearing a 3C cleavage site, a Venus YFP, a Myc tag, and a Streptavidin-binding peptide (SBP) downstream of the open reading frame in a modified pcDNA3.1 vector (Invitrogen) were used as described previously[21],[31]. Mutations were introduced using a modified QuikChange method[58] and were verified by sequencing.
HEK293T cells were transfected with 3–4 μg DNA per 6 cm Petri dish using the calcium phosphate co-precipitation method and were used within 24–96 h after transfection. Recordings were performed on inside-out patches excised from HEK293T cells expressing the construct of interest. Patch pipettes were pulled from borosilicate glass capillaries (O.D. 1.5 mm, I.D. 0.86 mm, Sutter Instrument) and were fire-polished with a microforge (Narishige) before use. Pipette resistance was typically 3–8 MΩ when filled with the recording solutions detailed below. Seal resistance was typically 4 GΩ or higher. Voltage-clamp recordings were made using Axopatch 200B, Digidata 1550, and Clampex 10.7 (Molecular Devices). Analog signals were filtered with the in-built 4-pole Bessel filter at 10 kHz and were digitized at 20 kHz. Solution exchange was achieved using a gravity-fed system through a theta glass pipette mounted on an ultra-fast piezo-driven stepper (Siskiyou). […] All recordings were performed at 20 °C.
A symmetrical ionic condition was used throughout. Stock solution with Ca^2+-EGTA contained 150 mM NaCl, 5.99 mM Ca(OH)2, 5 mM EGTA, and 10 mM HEPES at pH 7.40. Stock solution with EGTA contained 150 mM NaCl, 5 mM EGTA, and 10 mM HEPES at pH 7.40. Free Ca^2+ concentrations were adjusted by mixing the stock solutions at the required ratios calculated using the WEBMAXC program (http://web.stanford.edu/~cpatton/webmaxcS.htm). Patch pipettes were filled with the stock solution with Ca^2+-EGTA, which has a free Ca^2+ concentration of 1 mM. 1PBC (ChemBridge) stock was reconstituted in anhydrous DMSO (Sigma-Aldrich) at 100 mM and stored at −20 °C. Working solutions with 1PBC were prepared by serial dilution. Unless otherwise stated, experiments were performed at a saturating Ca^2+ concentration as shown in Supplementary Table 1 and the primary data were corrected for current rundown as described previously[21],[25].
Concentration-response relations, obtained from the ratio of the I-V plots before and after the application of the blocker, were fitted to the Hill equation,1 I/Imax=1/1+IC50/[blocker]^h where I/Imax is the normalized current responses, IC50 defines the concentration at which inhibition is at its half-maximum, and h is the Hill coefficient.

## N#Cc1c(C(F)(F)F)cc(O)n2c1nc1ccccc12 [1PBC]
0 mV, 2 µM Ca2+
  IC50: 594 nM
0 mV
  remaining activity at 1 µM: 35.3%
  remaining activity at 3 µM: 16.8%
  remaining activity at 10 µM: 5.97%
20 mV
  remaining activity at 1 µM: 28.4%
  remaining activity at 3 µM: 12.7%
  remaining activity at 10 µM: 5.12%
40 mV
  remaining activity at 1 µM: 22%
  remaining activity at 3 µM: 11%
  remaining activity at 10 µM: 3.23%
60 mV
  remaining activity at 1 µM: 19.8%
  remaining activity at 3 µM: 8.55%
  remaining activity at 10 µM: 3.5%
80 mV
  remaining activity at 1 µM: 18.3%
  remaining activity at 3 µM: 9.38%
  remaining activity at 10 µM: 3.36%
  log-fold IC50 (change of mutant vs WT): -0.9263
100 mV
  remaining activity at 1 µM: 19.3%
  remaining activity at 3 µM: 9.83%
  remaining activity at 10 µM: 5.03%
120 mV
  remaining activity at 1 µM: 20.4%
  remaining activity at 3 µM: 10.5%
  remaining activity at 10 µM: 4.78%
140 mV
  remaining activity at 1 µM: 24.4%
  remaining activity at 3 µM: 17.6%
  remaining activity at 10 µM: 10.2%
-20 mV
  remaining activity at 1 µM: 42.1%
  remaining activity at 3 µM: 20.8%
  remaining activity at 10 µM: 6.81%
-40 mV
  remaining activity at 1 µM: 47.5%
  remaining activity at 3 µM: 25.6%
  remaining activity at 10 µM: 10.2%
-60 mV
  remaining activity at 1 µM: 55.1%
  remaining activity at 3 µM: 31.9%
  remaining activity at 10 µM: 13.2%
-80 mV
  remaining activity at 1 µM: 60.7%
  remaining activity at 3 µM: 36.9%
  remaining activity at 10 µM: 16.4%
-100 mV
  remaining activity at 1 µM: 65.9%
  remaining activity at 3 µM: 42.7%
  remaining activity at 10 µM: 19.7%
-120 mV
  remaining activity at 1 µM: 69.4%
  remaining activity at 3 µM: 48.5%
  remaining activity at 10 µM: 24.7%
-140 mV
  remaining activity at 1 µM: 71.9%
  remaining activity at 3 µM: 51.2%
  remaining activity at 10 µM: 27.4%
20 mV, 2 µM Ca2+
  IC50: 431 nM
40 mV, 2 µM Ca2+
  IC50: 326 nM
60 mV, 2 µM Ca2+
  IC50: 269 nM
80 mV, 2 µM Ca2+
  IC50: 239 nM
100 mV, 2 µM Ca2+
  IC50: 233 nM
120 mV, 2 µM Ca2+
  IC50: 238 nM
140 mV, 2 µM Ca2+
  IC50: 315 nM
-20 mV, 2 µM Ca2+
  IC50: 805 nM
-40 mV, 2 µM Ca2+
  IC50: 1020 nM
-60 mV, 2 µM Ca2+
  IC50: 1360 nM
-80 mV, 2 µM Ca2+
  IC50: 1720 nM
-100 mV, 2 µM Ca2+
  IC50: 2170 nM
-120 mV, 2 µM Ca2+
  IC50: 2750 nM
-140 mV, 2 µM Ca2+
  IC50: 3100 nM
N546A, V 0 mV
  IC50: 594 nM
N546A, V 20 mV
  IC50: 431 nM
N546A, V 40 mV
  IC50: 326 nM
N546A, V 60 mV
  IC50: 269 nM
N546A, V 80 mV
  IC50: 239 nM
N546A, V 100 mV
  IC50: 233 nM
N546A, V 120 mV
  IC50: 238 nM
N546A, V 140 mV
  IC50: 315 nM
N546A, V -20 mV
  IC50: 805 nM
N546A, V -40 mV
  IC50: 1020 nM
N546A, V -60 mV
  IC50: 1360 nM
N546A, V -80 mV
  IC50: 1720 nM
N546A, V -100 mV
  IC50: 2170 nM
N546A, V -120 mV
  IC50: 2750 nM
N546A, V -140 mV
  IC50: 3100 nM
